# Laboratory results from patent US20130109655A1, “Method for mitigating of Prostaglandin E2 reducing side effects of non-steroidal anti-inflammatory drugs” (priority 2011, published 2013).
# Where “and” joins values, the source holds several entries; their conditions need not be identical. Equal entries are not always repeated. Where two headings read alike, the source gives them in different places.
# How the values were obtained:
# prostaglandin e2 [1] = settings: cited from earlier work; for change in serum levels of prostaglandin e2: niceritrol alone, Aspirin® added to niceritrol
# prostaglandin e2 [2] = settings: cited from earlier work; for effect on nicotine-initiated prostaglandin e2 production: cells treated with 100 mcM nicotine, NSAID 0.1 to 100 mcM; for prostaglandin e2 concentration: nicotine (100 mcM) pre-treated cells, highest NSAID concentration (log M=−4), absence of IL-18, basal 337 pM, digitised from published graph
# prostaglandin e2 [3] = settings: cited from earlier work; for prostaglandin e2 concentration: nicotine pre-treated cells, highest NSAID concentration (log M=−4), absence of IL-18, basal 0.35 nM, digitised from published graph; for effect on nicotine-induced PGE2 production: nicotine-treated cells
# [4] = tested on: prostaglandin e2 like substance (PGe2-LS); settings: cited from earlier work; for PGe2-LS release (M±SE): samples treated with indomethacin and the pyridine derivative, control group 0.54±0.06, n=5
# [5] = tested on: radioimmunoassayed prostaglandin E (R-PGE); settings: basal 21±10 pg/ml, cited from earlier work
# [6] = tested on: radioimmunoassayed prostaglandin E (R-PGE); settings: naproxen and nicotinic acid, basal 35.6±29.8, cited from earlier work
# prostaglandin e2 [7] = assay: serum prostaglandin e2 levels in normal male volunteers after niceritrol and Aspirin® (Nozaki et al. 1987); assay type: in vivo, human; settings: after administration of niceritrol and Aspirin®; basal 23.3±11.8 pg/ml
# Text: FIG. 3. is prostaglandin e2 section extracted by inventors from graph of FIG. 1. from publication “Increased compliance of niceritrol treatment by addition of Aspirin®: relationship between changes in prostaglandins and skin flushing.” (Nozaki, S. et al., 1987, Int J Clin Pharmacol Ther Toxicol, v 25, p: 643-7). Inventors marked on said figure extracted by inventors by using UN-SCAN-IT® basal (52.3, 33.6, 26.6, 21.2, 19.1, 18.1, 16.8, 16.0, 15.1, 13.9), and after niceritrol and Aspirin® administration (46.2, 16.6, 42.0, 44.1, 8.2, 11.4, 18.6, 9.9, 27.6, 6.2) concentration coordinates (pg/ml) of prostaglandin e2. […]
# Inventors used UN-SCAN-IT® to obtain digital concentration data from prostaglandin e2 section of the graph from the FIG. 1. of the publication (FIG. 3.). The obtained by inventors serum basal (52.3, 33.6, 26.6, 21.2, 19.1, 18.1, 16.8, 16.0, 15.1, 13.9), and after niceritrol and Aspirin® administration (46.2, 16.6, 42.0, 44.1, 8.2, 11.4, 18.6, 9.9, 27.6, 6.2) prostaglandin e2 digital levels (pg/ml) were statistically analysed using paired t-test.
smiles,measurement,setting,value
CC(=O)Oc1ccccc1C(=O)O [Aspirin®],change in serum levels of prostaglandin e2,prostaglandin e2 [1],significantly decreased
COc1ccc2c(c1)c(CC(=O)O)c(C)n2C(=O)c1ccc(Cl)cc1 [indomethacin],effect on nicotine-initiated prostaglandin e2 production,prostaglandin e2 [2],suppressed
same,prostaglandin e2 concentration,prostaglandin e2 [2],768 pM
same,prostaglandin e2 concentration,prostaglandin e2 [3],0.50 nM
same,effect on nicotine-induced PGE2 production,prostaglandin e2 [3],inhibited
same,effect on PGe2-LS release stimulated by pyridine derivatives,[4]; indomethacin treatment,reduced
O=C(O)c1cccnc1 [nicotinic acid],PGe2-LS release (M±SE),[4],0.63 ± 0.03 ng/min
same,plasma concentration of R-PGE (M±SE),[5]; infusion of nicotinic acid,49 ± 7 pg/mL
same,plasma concentration of R-PGE (M±SE),"[5]; nicotinic acid infusion after naproxen treatment, n=3",8 ± 2 pg/mL
same,actual release of R-PGE (M±SE),[6]; 5 min,8.2±13.8 pg/100 ml tissue×min
same,actual release of R-PGE (M±SE),[6]; 10 min,10.6±16.6 pg/100 ml tissue×min
same,actual release of R-PGE (M±SE),[6]; 20 min,18.8±16.2 pg/100 ml tissue×min
same,actual release of R-PGE (M±SE),[6]; 60 min,15.1±13 pg/100 ml tissue×min
O=C(OCC(COC(=O)c1cccnc1)(COC(=O)c1cccnc1)COC(=O)c1cccnc1)c1cccnc1 [niceritrol],mean (M±SD) serum prostaglandin e2 concentration,prostaglandin e2 [7],23.1 ± 15.8 pg/mL
same,"serum prostaglandin e2 level, individual volunteers","prostaglandin e2 [1]; after niceritrol and Aspirin® administration, 10 normal male volunteers, digitised from published graph",46.2 pg/mL and 6.2 pg/mL and 16.6 pg/mL and 42.0 pg/mL and 44.1 pg/mL and 8.2 pg/mL and 11.4 pg/mL and 18.6 pg/mL and 9.9 pg/mL and 27.6 pg/mL
same,change in serum levels of prostaglandin e2,prostaglandin e2 [1],significantly increased
CS(=O)(=O)Nc1ccc([N+](=O)[O-])cc1OC1CCCCC1 [NS398],effect on nicotine-initiated prostaglandin e2 production,prostaglandin e2 [2],suppressed
same,prostaglandin e2 concentration,prostaglandin e2 [2],761 pM
same,prostaglandin e2 concentration,prostaglandin e2 [3],0.55 nM
same,effect on nicotine-induced PGE2 production,prostaglandin e2 [3],inhibited
CN(C)C(=O)Oc1ccc[n+](C)c1 [pyridostigmine bromide],PGe2-LS release (M±SE),[4],0.50 ± 0.06 ng/min
OCc1cccnc1 [nicotinyl alcohol],PGe2-LS release (M±SE),[4],0.52 ± 0.06 ng/min
Cc1ncc(CO)c(CO)c1O.Cl [pyridoxine hydrochloride],PGe2-LS release (M±SE),[4],0.44 ± 0.02 ng/min
